The target of experiment [1] is T1, Corticotropin-releasing factor receptor 2/Corticotropin-releasing factor-binding protein (Homo sapiens, UniProt P24387+Q13324).
T1 sequence (Q13324 whole entry): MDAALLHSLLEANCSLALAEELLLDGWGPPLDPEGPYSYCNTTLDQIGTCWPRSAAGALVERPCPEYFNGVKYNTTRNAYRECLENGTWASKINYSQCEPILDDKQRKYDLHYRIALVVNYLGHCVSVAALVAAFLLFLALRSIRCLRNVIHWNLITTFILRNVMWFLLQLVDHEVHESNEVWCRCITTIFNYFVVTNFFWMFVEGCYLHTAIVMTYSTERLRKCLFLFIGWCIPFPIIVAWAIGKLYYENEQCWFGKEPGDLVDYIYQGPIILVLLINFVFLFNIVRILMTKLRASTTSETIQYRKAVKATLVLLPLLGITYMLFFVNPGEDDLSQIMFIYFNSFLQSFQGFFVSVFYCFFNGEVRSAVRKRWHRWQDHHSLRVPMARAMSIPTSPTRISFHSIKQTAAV
T1 sequence (P24387 whole entry): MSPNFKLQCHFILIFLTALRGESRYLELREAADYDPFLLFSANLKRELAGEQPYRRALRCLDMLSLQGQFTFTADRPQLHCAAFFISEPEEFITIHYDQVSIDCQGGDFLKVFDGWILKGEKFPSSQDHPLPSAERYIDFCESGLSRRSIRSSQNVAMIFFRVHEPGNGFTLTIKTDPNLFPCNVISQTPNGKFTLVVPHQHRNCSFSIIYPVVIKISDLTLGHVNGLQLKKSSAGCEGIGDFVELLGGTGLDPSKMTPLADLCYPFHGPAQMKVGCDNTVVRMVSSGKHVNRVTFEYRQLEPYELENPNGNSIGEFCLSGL
Briefly: Dose Response confirmation of uHTS hits for small molecule antagonists of the CRF-binding protein and CRF-R2 receptor complex. Type of experiment: functional. To be noted: read-out: IC50_Mean.

Experiment [2] concerns the target T1, Corticotropin-releasing factor receptor 2/Corticotropin-releasing factor-binding protein. Briefly: activators of CRF receptor 2 with binding protein – uHTS hits, confirmation (AID 602473). To be noted: read-out: EC50_Mean. Type of experiment: functional.
The target in experiment [3] is T2, Rac GTPase-activating protein 1 (Homo sapiens, UniProt Q9H0H5).
T2 sequence (Q9H0H5 whole entry): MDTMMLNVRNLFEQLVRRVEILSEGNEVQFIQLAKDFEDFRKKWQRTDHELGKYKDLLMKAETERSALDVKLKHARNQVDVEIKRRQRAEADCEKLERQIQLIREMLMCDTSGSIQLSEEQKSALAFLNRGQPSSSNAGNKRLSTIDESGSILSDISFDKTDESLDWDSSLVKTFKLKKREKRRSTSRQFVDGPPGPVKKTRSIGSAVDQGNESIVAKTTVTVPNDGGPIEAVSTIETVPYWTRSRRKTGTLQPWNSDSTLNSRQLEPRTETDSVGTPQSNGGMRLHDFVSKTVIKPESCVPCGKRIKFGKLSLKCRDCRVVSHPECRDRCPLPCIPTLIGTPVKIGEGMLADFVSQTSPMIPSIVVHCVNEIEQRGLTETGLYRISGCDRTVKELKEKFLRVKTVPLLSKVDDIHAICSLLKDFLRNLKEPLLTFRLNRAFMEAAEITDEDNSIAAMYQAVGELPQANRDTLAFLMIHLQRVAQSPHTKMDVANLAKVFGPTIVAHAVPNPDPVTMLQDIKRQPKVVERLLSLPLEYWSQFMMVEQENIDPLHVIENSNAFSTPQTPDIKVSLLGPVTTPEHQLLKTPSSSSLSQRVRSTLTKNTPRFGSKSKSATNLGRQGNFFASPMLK
Briefly: MgcRacGAP GTPase-activating activity inhibitors, confirmation, biochemical, ADP Hunter fluorescence, primary and confirmatory (AID 624330). The format is functional.

The nature of experiment [4]: NIH-3T3 fibroblast cytotoxicity, dose response, cytotoxicity control, cell-based, fluorescence, Alamar Blue, secondary assay (AID 2327).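 Further: NIH-3T3 mouse fibroblasts cultured with fluconazole at 8 µg/mL.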 The format is functional.
Experiment [5] in a line: C. albicans growth with fluconazole, confirmation, fluorescence, retest (AID 2467). The format is functional, cell-based.
In the next experiment the test system is H4. Briefly: Luminescence Cell-Based Dose Response HTS to Identify Activators of 5'UTR Stem-Loop Driven Prion Protein mRNA Translation in H4 Neuroglioblastoma Cells. [Related pubchem assays: 1829 (Project Summary), 1814 (Primary HTS)]. Type of experiment: functional. To be noted: Homo sapiens.
Experiment [6] in a line: inhibitors of intracellular T. cruzi replication, confirmation, NIH3T3 host cells, beta-gal luminescence (AID 2044).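 Further: intracellular parasites grown in NIH/3T3 mouse fibroblasts as host cells; luminescent beta-galactosidase reporter signal from transgenic T. cruzi replicating inside host cells; inhibitors lower the luminescence signal.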 The format is functional, cell-based.
Experiment [7] is described as follows: cytotoxicity toward NIH3T3 fibroblasts, dose response, counter-screen, cell-based, ATP luminescence, mouse fibroblasts (AID 2010).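 Further: cells exposed to compound for about 90 hours before reading.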 Type of experiment: functional.
A short description of experiment [8]: Luminescence Cell-Based Dose Response HTS to Identify Activators of Luciferase Translation or Activity in H4 […] Cells. [Related pubchem assays: 1829 (Project Summary), 1814 (Primary HTS)]. The format is functional.
Experiment [9] has as its system Streptococcus sp. 'group A'. Briefly: growth inhibition of control SK(-) GAS strain, dose response, counter-screen for streptokinase expression inhibitor project, luminescence, kanamycin, BacTiterGlo, confirmation (AID 1900). The format is functional, organism-based.
The next experiment has as its system Streptococcus. Briefly: Group A Streptococcus viability loss, dose response, counter-screen for streptokinase expression inhibitor project, luminescence, BacTiterGlo (AID 1915).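 Further: potency for reduction of bacterial viability or growth.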 Type of experiment: functional, organism-based.
A short description of experiment [10]: HEp-2 cell cytotoxicity, dose response, cytotoxicity control for RSV inhibitor project, HTS (AID 2410). The format is functional. As to conditions: human respiratory syncytial virus.
A further experiment deals with Cytochrome P450 2D6 (Homo sapiens, UniProt P10635).
Cytochrome P450 2D6, sequence (P10635 whole entry): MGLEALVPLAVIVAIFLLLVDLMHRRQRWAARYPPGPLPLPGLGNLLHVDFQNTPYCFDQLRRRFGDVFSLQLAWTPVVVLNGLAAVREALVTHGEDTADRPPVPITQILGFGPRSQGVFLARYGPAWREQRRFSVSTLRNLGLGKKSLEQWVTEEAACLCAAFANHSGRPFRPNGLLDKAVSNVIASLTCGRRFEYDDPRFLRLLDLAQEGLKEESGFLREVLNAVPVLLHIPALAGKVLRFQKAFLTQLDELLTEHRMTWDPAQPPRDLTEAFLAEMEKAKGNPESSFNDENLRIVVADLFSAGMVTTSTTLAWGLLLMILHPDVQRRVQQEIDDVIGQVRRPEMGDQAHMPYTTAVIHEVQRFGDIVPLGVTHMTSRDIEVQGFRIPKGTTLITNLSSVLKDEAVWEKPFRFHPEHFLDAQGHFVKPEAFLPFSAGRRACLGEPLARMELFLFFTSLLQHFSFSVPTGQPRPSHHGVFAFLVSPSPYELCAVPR
The next experiment addresses T3, Cytochrome P450 1A2 (Homo sapiens, UniProt P05177).
T3 sequence (P05177 whole entry): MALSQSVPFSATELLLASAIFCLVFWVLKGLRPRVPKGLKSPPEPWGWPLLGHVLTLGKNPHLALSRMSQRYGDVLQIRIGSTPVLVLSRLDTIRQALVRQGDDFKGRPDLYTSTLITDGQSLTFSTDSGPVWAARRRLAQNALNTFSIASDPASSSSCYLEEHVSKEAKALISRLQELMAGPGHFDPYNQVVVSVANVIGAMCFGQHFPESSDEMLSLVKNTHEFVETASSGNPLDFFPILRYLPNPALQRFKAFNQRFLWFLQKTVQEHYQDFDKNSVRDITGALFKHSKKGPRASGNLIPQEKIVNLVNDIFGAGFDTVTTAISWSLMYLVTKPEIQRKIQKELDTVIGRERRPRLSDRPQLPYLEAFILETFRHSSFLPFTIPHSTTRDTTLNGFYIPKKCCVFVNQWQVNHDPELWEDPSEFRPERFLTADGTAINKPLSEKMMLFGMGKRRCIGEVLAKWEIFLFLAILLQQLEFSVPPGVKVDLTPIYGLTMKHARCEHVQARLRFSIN

The target in a further experiment is Cytochrome P450 3A4 (Homo sapiens, UniProt P08684).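 Further: CYP3A4 tested as one member of a cytochrome P450 panel screen.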
Cytochrome P450 3A4, sequence (P08684 whole entry): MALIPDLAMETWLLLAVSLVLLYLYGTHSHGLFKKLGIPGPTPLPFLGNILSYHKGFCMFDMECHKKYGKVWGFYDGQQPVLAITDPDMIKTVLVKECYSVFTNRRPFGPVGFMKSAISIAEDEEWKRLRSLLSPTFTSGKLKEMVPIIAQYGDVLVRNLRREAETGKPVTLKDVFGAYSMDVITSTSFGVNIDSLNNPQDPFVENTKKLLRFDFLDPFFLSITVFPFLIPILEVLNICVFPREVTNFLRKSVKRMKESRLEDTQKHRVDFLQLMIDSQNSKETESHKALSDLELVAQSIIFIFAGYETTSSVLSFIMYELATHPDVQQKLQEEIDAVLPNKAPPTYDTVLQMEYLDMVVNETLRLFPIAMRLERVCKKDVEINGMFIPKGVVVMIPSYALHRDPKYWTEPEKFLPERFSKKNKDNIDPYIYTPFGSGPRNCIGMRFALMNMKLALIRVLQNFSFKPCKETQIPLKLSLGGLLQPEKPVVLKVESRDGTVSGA

The source made the active and inactive calls. For most assays here, no stated cut-off is given here; in the data, actives have a measured EC50 and inactives only a lower limit. Some results are limits rather than exact numbers.

Take `O=C(NCC1CCCO1)C1CCCN1C(=O)NC1CCCCC1` (stereo unspecified): the IC50 in experiment [1] is > 47.1 µM (inactive). For the same compound, the EC50 in experiment [2] is > 53 µM (inactive).
For `O=[N+]([O-])c1ccc(N2CCOCC2)cc1NCc1ccccc1`, the IC50 in [1] was > 47.1 µM (inactive). Also, in [2], the EC50 was > 53 µM (inactive).
For `COc1ccc(CN2CCN(Cc3cccc(F)c3)CC2)cc1OC`, the IC50 in experiment [3] was 83 µM (active).
Take `COc1ccc(C(=O)N(c2ccccc2)C2C=CS(=O)(=O)C2)cc1` (stereo unspecified): the IC50 in experiment [1] was > 47.1 µM (inactive). Besides, the EC50 in experiment [2] is > 53 µM (inactive).
With `COc1ccccc1OCCCCCCN1CCOCC1`, the IC50 in experiment [3] is 184 µM (active).
Consider `CCc1cccc(NC(=S)N(CCCN2CCOCC2)C(C)c2cc3cccc(OC)c3o2)c1` (stereo unspecified), for which the IC50 in experiment [1] was > 47.1 µM (inactive). In addition, the EC50 in [2] is > 53 µM (inactive).
`CCc1nnc(N/N=C/c2c(C)[nH]c3ccccc23)n1N`: the IC50 in experiment [3] is 51.7 µM (active).
Same read-out and setting: in the case of `COc1cc(/C=N/NC(=O)CCc2nnc(O)nc2O)ccc1O` it was 32.5 µM (active).
In the case of `CNC(=O)C1CCN(S(=O)(=O)c2c(C)noc2/C=C/c2ccc(OC)cc2)CC1`, the EC50 in [2] is > 53 µM (inactive).
Consider `CCc1ccc2[nH]c(C(=O)Nc3ccc4c(c3)OCO4)cc2c1`, for which the IC50 in [1] was > 47.1 µM (inactive). Besides, the EC50 in [2] was > 53 µM (inactive).
In the same order, the values of `Cc1ccc(-n2nc(C)c(Sc3ccccc3[N+](=O)[O-])c2N)cc1` are > 47.1 µM (inactive) and > 53 µM (inactive).
With `Cc1cc(C)nc(NS(=O)(=O)c2ccc(NC(=O)COc3ccccc3)cc2)n1`, the EC50 is > 150 µM (inactive) in experiment [4] and > 38 µM (not active) in experiment [5].
As for `O=C1NCCCCC1NS(=O)(=O)c1cccc2ccccc12` (stereo unspecified), in experiment [1], the IC50 was > 47.1 µM (inactive). For the same compound, the EC50 in experiment [2] is > 53 µM (inactive).
For the compound `COc1ccc(NCCC#N)cc1`, the IC50 in experiment [3] is 79.1 µM (active).
`CCOc1ccccc1-n1c(C)nc2cc(C(=O)O)ccc21`: the IC50 in experiment [1] was > 47.1 µM (inactive). Also, the EC50 in experiment [2] is > 53 µM (inactive).
In the case of `CCOc1ccc(-c2cc(C(=O)N/N=C(\C)c3cccnc3)c3ccccc3n2)cc1`, in the experiment with H4, the EC50 was 84.3 µM (inconclusive).
Take `CCN(c1ccccc1)S(=O)(=O)c1ccc(C(=O)Nc2nnc(C3CC3)o2)cc1`: the EC50 in [4] was > 160 µM (inactive); in experiment [5] it was 2.19 µM (active); in [6], 2.16 µM (active); in experiment [7], 3.71 µM (active).
Consider `COc1cccc(C(=O)N2CCN(C3CCN(Cc4ccccc4)CC3)CC2)c1OC`, for which the IC50 in [3] was 120 µM (active).
Still for that read-out and setting: with `O=C(Cn1c(C(=O)NCC2CCCO2)cc2sccc21)c1ccccc1` (stereo unspecified) the figure was 102 µM (active).
As for `COc1ccc(CCC(=O)N2CC(C)OC(C)C2)cc1` (stereo unspecified), the results for the EC50 in experiment [4] and in experiment [5] were > 150 µM (inactive) and > 38 µM (not active), respectively.
For `O=S(=O)(c1ccc(Cl)s1)N1CCCc2cccc(O)c21`, the EC50 in [4] was 21.4 µM (active); in [8], 6.05 µM (active); in the experiment on H4, 45.3 µM (active); in experiment [5], > 38 µM (not active).
With `CNS(=O)(=O)c1cccc(C(=O)NCC(c2ccco2)N(C)C)c1` (stereo unspecified), in experiment [1], the IC50 was > 47.1 µM (inactive). Also, in experiment [2], the EC50 was > 53 µM (inactive).
For `CCc1ccc(OCCOCCN2CCN(C)CC2)cc1`, the IC50 in experiment [3] is 89.4 µM (active).
For `Nc1c2c(nc3sc4c(c13)CCCCC4)CCCCC2`, the values for the EC50 in experiment [4] and in experiment [5] were > 160 µM (inconclusive) and 3.83 µM (active), respectively.
In the same order, the values of `COc1ccc2c(c1)c(/C=C/c1cc[n+](C)cc1)cn2C` are > 160 µM (inactive) and 2.23 µM (active).
With `O=C(COc1ccc(Cl)cc1Cl)NNC(=S)NC(=O)c1ccco1`, the EC50 in [9] was 0.309 µM (active); in the experiment with Streptococcus it was 1.57 µM (active).
Take `COc1ccc(/C=N/c2ccc3[nH]ncc3c2)c(O)c1`: the IC50 in experiment [3] is 35.3 µM (active).
For the compound `CSc1ccc(CNC(=O)Cc2ccc(NC(=O)C3=C(C)OCCS3)cc2)cc1`, in [8], the EC50 is 1.92 µM (active).
In the case of `O=C(Cc1ccc(O)cc1)N/N=C/c1cccnc1`, the EC50 in experiment [4] was > 160 µM (inactive); in [5], > 38 µM (not active).
Turning to `O=C1C(/C=N/c2ccc(F)cc2)=C(O)c2ccccc21`, the EC50 in [8] was 0.173 µM (active); with H4, 0.38 µM (active).
With `CC(=C/c1ccccc1)/C=N/n1c(S)nnc1-c1ccco1`, the IC50 in experiment [3] is 86.4 µM (active).
Take `Sc1nnc(-c2cccs2)n1/N=C/c1cccs1`: the EC50 was > 150 µM (inactive) in experiment [4] and 1.93 µM (active) in [5]. For the same compound, the IC50 in experiment [3] is 126 µM (active).
As for `COc1ccc(C(=O)NC(=S)NNC(=O)c2ccccc2O)cc1`, the values for the EC50 (in experiment [9]; with Streptococcus; in experiment [2]) were 2.7 µM (active), 8.79 µM (active) and > 53 µM (inactive), respectively.
For `COc1cc(/C=N/NC(=O)c2ccc(-n3cccc3)cc2)ccc1O`, the IC50 in experiment [3] is 23.9 µM (active).
For `O=Nc1c(O)n(Cc2cccc(Cl)c2)c2ccccc12`, the EC50 in [4] was > 150 µM (inactive); in experiment [5], 2.99 µM (active). For the same compound, the CC50 in [10] was 11.7 µM (active). Further, the figures for the AC50 at Cytochrome P450 2D6, on Cytochrome P450 1A2 and at Cytochrome P450 3A4 were 22.4 µM (inconclusive), 25.1 µM (inconclusive) and 39.8 µM (inconclusive), respectively.
Regarding `CC(=O)Cc1nsc(Nc2ccc(Cl)cc2)n1`, the EC50 in experiment [4] is > 160 µM (inactive); in [5] it was > 38 µM (not active).
For `COc1cc(/C=C/C(=O)OCC(=O)Nc2ccc(S(=O)(=O)N3CCCC3)cc2)ccc1O`, the IC50 in experiment [3] was 60 µM (active).
Take `O=C(NCCc1c[nH]c2ccccc12)c1cnc2sccn2c1=O`: the EC50 is 53 µM (active) in [8] and 54.8 µM (inconclusive) in the experiment on H4.

Values taken from ChEMBL document CHEMBL1201862, “PubChem BioAssay data set” (2004).
